# Measured values as given in patent publication US20240065998A1, “MONOACYLGLYCEROL AND FREE FATTY ACID-BASED COMPOSITIONS, METHODS OF MANUFACTURING AND USE OF THE SAME” (priority 2021, published 2024).
# Read-outs that look alike come from different tables or passages of the source.
# Columns and labels:
# [1] = cited from earlier work; for HLB: exemplary HLB value of the single emulsifier
# [2] = tested on: Respiratory Syncytial Virus (RSV), Herpes Simplex Virus (HSV), H1N1 flu virus, and SARS-CoV-2; format: cell-based; conditions: nEMO at 0.5 to 50 mg/mL, EtOH 70%
# Source text: Table 73 below provides formulations of a nEMO sanitizer with 0.5% nEMO, 29.5% glycerol, and 70% […].
# [3] = HLB values of compositional components; conditions: share in the oil phase of ACv14 (% of oil phase x rHLB); Total = sum
# Source text: HLB is typically considered when planning oil-in-water cream formulations according to the requirements of the cream.
# If the Oat EMO is omitted and the Flax FFA oil raised, then a higher rHLB is required, meaning that a larger percentage of the emulsifier can be high HLB (S-20). This 0% Oat MAG (EMO) and 4% Flaxseed FFA oil combo gives an rHLB value of 12.64, which would coincide with a 25/75 ratio of S-2/S-20 or Monolaurin/S-20. This would minimize the amount of S-2 which caused larger coalescence at a 1:1 ratio overnight.
# SARS-CoV-2, USA_WA1/2020 = format: cell-based; conditions: 70%, 2 min, 37 ± 2° C.
# [4] = tested on: titer assay cells (MA-104, Vero E6, Vero 76)
# [5] = tested on: Respiratory syncytial virus (RSV, A2); format: cell-based; conditions: 70%, 2 min, 37 ± 2° C.; for LRV: VC titer 3.3
# [6] = tested on: Herpes simplex-1 (HSV-1, H1KOS S1); assay: Virucidal assay, 2 minute contact, end-point dilution (CCID50, LRV); format: cell-based; conditions: 70%, 2 min, 37 ± 2° C.
molecule,measurement,setting,value
Glyceryl Stearate SE,HLB,[1],5.8
CCO [EtOH],Virucidal Activity,"[2]; H1N1, Log10 of initial virus concentration 5.7",>99.99%
same,Virucidal Activity,"[2]; HSV, Log10 of initial virus concentration 5",>99.99%
same,Virucidal Activity,"[2]; RSV, Log10 of initial virus concentration 3.3",>99%
same,Virucidal Activity,"[2]; SARS-COV-2, Log10 of initial virus concentration 5",>99.99%
Steareth-2,HLB,[1],4.9
CCCCCCCCCCCC(=O)OCC(O)CO (centres unmarked) [Glyceryl Laurate],HLB,[1],5.2
CCCCCCCCCCCCCCCCO [Cetyl Alcohol],rHLB of oil percentage,[3],3.69
same,Required HLB (rHLB),[1]; exemplary value of the oil phase component,15.5
CCO [Ethanol],Virus Titer,"SARS-CoV-2, USA_WA1/2020; Table 59A",<0.7 log10 CCID50 of virus per 0.1 mL
same,LRV,"SARS-CoV-2, USA_WA1/2020; Table 59A, VC titer 5.3",>4.6
same,Virus Titer,"SARS-CoV-2, USA_WA1/2020; Table 59B",<0.7 log10 CCID50 of virus per 0.1 mL
same,LRV,"SARS-CoV-2, USA_WA1/2020; Table 59B, VC titer 5.0",>4.3
same,Toxicity (highest dilution of the endpoint titer with full (80-100%) cytotoxicity),[4],None
same,Virus Titer,[5]; Table 57A,<0.7 log10 CCID50 of virus per 0.1 mL
same,LRV,[5]; Table 57A,>2.6
same,Virus Titer,[5]; Table 57B,<0.7 log10 CCID50 of virus per 0.1 mL
same,LRV,[5]; Table 57B,>2.6
same,LRV,"[6]; Table 60A, VC titer 4.5",>3.8
same,LRV,"[6]; Table 60B, VC titer 5.0",>4.3
